Assay results as given in paper PMC8448719 (Archives of Toxicology, 2021).
Where two headings read alike, the source gives them in different places.

Legend:
in vitro = in vitro ADME, rat
Description: (§1) All in vitro Vmax values were scaled to microsomal or S9 protein content of rat liver using the following scaling factors: 45 mg microsomal protein per gram liver tissue and 125 mg S9 protein per gram liver tissue (Houston and Galetin [2008]). The scaled Vmax values were subsequently converted to Vmax in nmol/min/liver using the liver weight of 9.1 g, calculated from the body weight and fractional liver weight presented in Table 1. The Km in vitro was assumed equal to the Km in vivo.
(§2) The incubation mixtures consisted of (final concentrations) 0.1 mM potassium phosphate (pH 7.4), 5 mM MgCl2, 0.5 mg/ml rat liver microsomes or 2 mg/ml rat lung microsomes, and 1 mM NADPH in conical glass vials. […] The mixtures were incubated in a shaking water bath at 37 °C for 30 min. 20 µl ice-cold 10% (v/v) perchloric acid (HClO4) was added to terminate the reactions and the mixtures were put on ice for at least 15 min. Di-isopropyl ether (DIPE) was used to extract BaP and its metabolites from the incubation mixture. To this end, 1 ml DIPE was added to each incubation mixture, the tubes vortexed for 20 s and the upper layer was collected. Extraction was performed three times. Remaining DIPE was removed by evaporation under a stream of N2. Subsequently, extracts were re-dissolved in 100 µl methanol and transferred to UPLC vials for analysis.
The UPLC was equipped with a Photodiode Array (PDA) detector, recording wavelengths between 190 and 400 nm and a Phenomenex C18 column (Phenomenex, Torrance, California, United States). The column temperature was kept at 40 °C and the auto-sampler at 4 °C during analysis. The mobile phase consisted of Nanopure water containing 0.1% (v/v) trifluoroacetic acid (TFA) (A) and acetonitrile containing 0.1% (v/v) TFA (B) at a flow rate of 0.3 ml/min. The total run time was 23 min and 30 s, starting with 10% B for 30 s, increasing to 100% B in 15 min, maintaining this condition for 3 min before returning to the initial conditions of 10% B in 30 s. 10 µl of sample was injected per run. Under these conditions the metabolite 3-OHBaP, detected at 258 nm, eluted at 10.16 min. For the glucuronidated and sulfonated metabolite of 3-OHBaP, retention time and detection wavelength were 7.5 min, 303.3 nm and 7.4 min, 301 nm, respectively. The amounts of 3-OHBaP in the microsomal incubation sample and of glucuronidated and sulfated 3-OHBaP in the S9 incubation samples were quantified by integrating peak areas at their respective wavelengths using a calibration curve prepared with commercially available 3-OHBaP. To obtain the Vmax and Km the in vitro data for the substrate concentration-dependent rate of metabolite formation were fitted to the Michaelis–Menten equation using Graphpad Prism 9.0.1 for Windows (GraphPad Software, San Diego, California, USA).

[1] = format: in vitro ADME; conditions: rat, 30 min, pH 7.4
Description: as §2
The UPLC was equipped with a Photodiode Array (PDA) detector, recording wavelengths between 190 and 400 nm and a Phenomenex C18 column (Phenomenex, Torrance, California, United States). […] Under these conditions the metabolite 3-OHBaP, detected at 258 nm, eluted at 10.16 min. […] The amounts of 3-OHBaP in the microsomal incubation sample and of glucuronidated and sulfated 3-OHBaP in the S9 incubation samples were quantified by integrating peak areas at their respective wavelengths using a calibration curve prepared with commercially available 3-OHBaP. […]

F-344 rat = assay: In vivo reproductive toxicity of BaP (foetal survival), nasal inhalation; conditions: inhalation expressed as oral dose equivalent, data of Archibong et al. (2002)
Description: Foetal survival, calculated as the fraction of live foetuses relative to the number of implantation sites reported in these studies, was taken as measure for in vivo reproductive toxicity. […] These oral dose equivalents in mg/kg bw were used for the comparison with model predicted dose–response data.
ED50 values were calculated for the predicted and reported dose–response data, using the non-linear regression with three parameters in Graphpad Prism version 9.0.1 for Windows (GraphPad Software, San Diego, California USA). The ED50 value was calculated for the fraction differentiated into beating cardiomyocytes for the predicted dose–response data. For the in vivo studies, foetus survival (number of live foetuses as fraction of total implantations) was used as response.

Caco-2 cells = conditions: cited from earlier work
[2] = rat, in vivo; cited from earlier work
[3] = Glucuronidation of 3-OHBaP in incubations with rat liver S9; format: in vitro ADME
Description: as §1
(§3) Incubations with rat liver and lung S9 fractions were optimized to establish linearity over time and protein concentrations for the rate of glucuronidation and sulfation of 3-OHBaP. […]
Kinetics for 3-OHBaP glucuronidation, were quantified using incubations with pooled liver S9 fractions from male SD rats. […]
(§4) All incubation mixtures were pre-incubated for 1 min, after which the reaction was initiated by addition of 3-OHBaP in final concentrations ranging from 0.01 to 50 µM (glucuronidation) or 0.01–100 µM (sulfation) added from 100 times concentrated stock solutions in DMSO to reach the final volume of 200 µl (1% DMSO v/v). […] The supernatant was collected and analysed by Ultra Performance Liquid Chromatography (UPLC). […]

[4] = Sulfation of 3-OHBaP in incubations with rat liver S9; format: in vitro ADME; conditions: male, SD, pooled rat liver S9, pH 7.4
Description: as §1, §3
Hepatic sulfonation of 3-OHBaP was evaluated using pooled liver S9 fractions of male SD rats, in incubation mixtures with a final volume of 200 µl in conical glass vials containing (final concentrations) 0.1 mM Tris–HCl (pH 7.4), 0.1 mg/ml rat liver S9 and 0.2 mM PAPS.
as §4

[5] = PBK model prediction of 3-OHBaP blood concentrations in rat; conditions: intravenous; Marie et al. (2010)
Excerpt: The conceptual PBK model for BaP consisted of separate compartments for venous blood, arterial blood, fat tissue, liver tissue, lung tissue, rapidly and slowly perfused tissue, stomach and intestines. 3-OHBaP is highly lipophilic. To prevent 3-OHBaP from partitioning into the fat tissue in the model simulations, it was essential to include a blood protein compartment in the model to allow binding of 3-OHBaP to blood protein. The unbound fraction of 3-OHBaP in the blood compartment was represented by the fub, in vivo, calculated as described in “Translating in vitro concentration–response data into in vivo dose–response data using PBK modelling-based reverse dosimetry” section. The fraction of 3-OHBaP bound to protein in the blood protein compartment (fb, in vivo) was calculated as 1 minus the fub, in vivo. […] Clearance of 3-OHBaP was assumed to result from hepatic and pulmonary conjugation (Cohen [1990]; Cohen and Moore [1976]). […]
For oral exposure, stomach emptying and intestinal transfer of the parent compound were included. […] The Papp, in vivo was calculated using the following equation: log (Papp, in vivo) = 0.6836 × log (Papp, Caco−2) − 0.5579 (Sun et al. [2002]) and applied in the model as described before (Zhang et al. [2018]). […]

[6] = 3-OHBaP in rat blood, read-out: Cmax reported, cited from earlier work
ES-D3 cells = tested on: ES-D3 cells; set-up: method as in Kamelia et al. (2020); conditions: without bioactivation; ref Kamelia et al. (2020); cited from earlier work
[7] = rat PBK model; ref Crowell et al. (2011); cited from earlier work
[8] = formation of the metabolite from BaP, rat liver microsomes

With `c1ccc2c(c1)cc1ccc3cccc4ccc2c1c34` [BaP, benzo[a]pyrene] the Vmax (in vitro; rat, 30 min, pH 7.4) was 0.16 nmol/min/mg microsomal protein, the “Vmax scaled to the whole liver” value (in vitro; rat, 30 min, pH 7.4) was 4.1 µmol/min/liver and the Km at 30 min (in vitro; rat, pH 7.4, Km) was 34 µM. The “Rate of 3-OHBaP formation” value ([1]; 200 µM) was 0.81 pmol/min/mg protein, the “Formation of 3-OHBaP in lung microsomes” value [1] was “did not result in formation of detectable levels of 3-OHBaP” and the “ED50 derived from reported in vivo dose-response data” value (F-344 rat) was 29 mg/kg bw per day. For the same compound, the “Log Papp, Caco-2” value (Caco-2 cells) was -5.42, the “Papp, Caco-2” value (Caco-2 cells) was 3.8 x1E-6 cm/sec and the “Blood concentration in maternal versus foetal blood” value [2] was “similar”.

With `O=C1C=Cc2ccc3c4c(ccc1c24)C(=O)c1ccccc1-3` [B[a]P-3,6-quinone] the Vmax (in vitro; [8]) was 3.0 ± 0.5 pmol/min/mg microsomal protein.

With `O=C1C=Cc2ccc3c4c(ccc1c24)-c1ccccc1C3=O` [B[a]P-1,6-quinone] the Vmax (in vitro; [8]) was 22.2 ± 3.2 pmol/min/mg microsomal protein.

For `Oc1ccc2ccc3c4ccccc4cc4ccc1c2c43` [3-OHBaP, 3-hydroxybenzo[a]pyrene], the Vmax (in vitro; [8]) was 162.2 ± 47.6 pmol/min/mg microsomal protein, the “Concentration at which substrate inhibition occurred” value ([3]; glucuronidation) was at least 50000 nM and the Km at 20 min ([3]; male, SD, pooled rat liver S9, pH 7.4, glucuronidation of 3-OHBaP) was 10 µM. For the same compound, the Km at 70 min [4] was 17 µM, the “Cmax reported relative to predicted Cmax (fold higher)” value [5] was 1.1 fold and the Cmax ([6]; intratracheal 10 mg/kg bw BaP, ref Moreau and Bouchard (2015)) was 140 nM. The Cmax ([6]; intravenous 10 mg/kg bw BaP, ref Marie et al. (2010)) was 720 nM, the Cmax ([6]; intravenous 10 mg/kg bw BaP, ref Moreau and Bouchard (2015)) was 220 nM and the Cmax ([6]; oral 10 mg/kg bw BaP, ref Moreau and Bouchard (2015)) was 100 nM. For the same compound, the “Result in the EST” value (ES-D3 cells) was “induces developmental toxicity”, the “Tissue:blood partition coefficient, fat” value [7] was 401 and the “Tissue:blood partition coefficient, liver” value [7] was 12.24. For the same compound, the “Tissue:blood partition coefficient, lung” value [7] was 12.24, the “Tissue:blood partition coefficient, rapidly perfused tissue” value [7] was 12.24 and the “Tissue:blood partition coefficient, slowly perfused tissue” value [7] was 6.43.
